# Experiments:
# [1] = tested on: transplanted tumor of human glioblastoma A172 cells; assay: Human glioblastoma in nude mice model; settings: 30 mg/kg i.g. 30 d
# Description: (§1) Then cell concentration was adjusted to 1×10^7/ml with matrigel, then each nude mouse was inoculated subcutaneously with 0.2 ml of cells at its right armpit and recorded as the first day of inoculation. […] Each group was continuously administered intragastrically for 30 days with a dose of 20 ml/kg. The mice were sacrificed the next day after drug withdrawal and the indicators were tested. The long diameter and short diameter of the tumor, and the body weight of each mouse were recorded every 3 days from drug administration to nude mouse sacrifice.
# (§2) The body weight of the nude mice and the long diameter (a) and short diameter (b) of the transplanted tumor were measured every 3 days, and the tumor volume (v), relative tumor volume (RTV) and relative tumor proliferation rate (T/C) are calculated respectively according to the following formulas, wherein V=a×b^2/2; RTV=V/V0 (V0 is the tumor volume before administration, V is the tumor volume before sacrifice), and T/C (%)=treatment group RTV/model control group RTV×100%.
# (§3) Each mouse was weighed and sacrificed. After the tumor was completely stripped off from the body of the mouse, the non-tumor tissues such as blood stains and fat were removed to weigh the tumor and calculate the tumor growth inhibition rate. The average tumor weight of each group of mice is used as an indicator of efficacy. Tumor growth inhibition rate (%)=(1−the average tumor weight of the treatment group/the average tumor weight of the model group)×100%.
# [2] = tested on: transplanted tumor of human large cell lung cancer H1299 cells; assay: Human large cell lung cancer (H1299) in nude mice model; settings: 30 mg/kg i.g. 30 d
# Description: as §1, §2, §3
# [3] = tested on: transplanted tumor of human renal clear cell adenocarcinoma 786-O cells; assay: Human renal clear cell adenocarcinoma in nude mice model; settings: 786-O nude mice; 30 mg/kg i.g. 30 d
# Description: as §1, with “786-O cells in a logarithmic growth phase were taken and subjected to a trypan blue exclusion experiment showing that the cell viability was more than 95%, then the cells were subjected to trypsinization, centrifugation, and supernatant removal. Then” for “Then”, “matrigel, and” for “matrigel,”
# as §2, §3
# [4] = tested on: transplanted tumor of human esophageal cancer TE-1 cells; assay: Human esophageal cancer in nude mice model; settings: 30 mg/kg
# Description: (§4) Then cell concentration was adjusted to 1×10^7/ml with matrigel, and then each nude mouse was inoculated subcutaneously with 0.2 ml of cells at its right armpit and recorded as the first day of inoculation. […] Each group was continuously administered intragastrically for 30 days with a dose of 20 ml/kg. The mice were sacrificed the next day after drug withdrawal and the indicators were tested. The long diameter and short diameter of the tumor, and the body weight of each mouse were recorded every 3 days from drug administration to nude mouse sacrifice.
# as §2, §3
# [5] = tested on: transplanted tumor of human large cell lung cancer H460 cells; assay: Human large cell lung cancer (H460) in nude mice model; settings: 30 mg/kg i.g. 30 d
# Description: as §4, §2, §3
# [6] = tested on: transplanted tumor of human prostate cancer PC3 cells; assay: Human prostate cancer in nude mice model; settings: 30 mg/kg i.g. 30 d
# Description: as §4, §2, §3
# [7] = tested on: transplanted tumor of human pancreatic cancer PANC-1 cells; assay: Human pancreatic cancer in nude mice model
# Description: as §4
# The body weight of the nude mice and the long diameter (a) and short diameter (b) of the transplanted tumor were measured every 3 days, and the tumor volume (v), relative tumor volume (RTV) and relative tumor proliferation rate (T/C) are calculated respectively according to the following formulas, wherein V=a×b^2/2; RTV=V/V0 (V0 is the tumor volume before administration, V is the tumor volume before sacrifice), and T/C (%)=treatment group RTV/model control group RTV×100%
# as §3
# [8] = PANC-1 nude mice, 30 mg/kg i.g. 30 d
smiles,measurement,setting,value
O=P1(N(CCCl)CCCl)NCCCO1 (centres unmarked) [Cyclophosphamide],Body Weight (g)(d1),[1],22.89 ± 1.22 g
same,Body Weight (g)(d30),[1],19.27 ± 1.49 g
same,Inhibition Rate (%),[1],68.68%
same,Relative Tumor Proliferation Rate(T/C),[1],75.42%
same,Relative Tumor Volume (RTV),[1],11.78 ± 3.25
same,Tumor Volume (mm3) (d1),[1],122.41 ± 14.06 mm3
same,Tumor Volume (mm3) (d30),[1],1430.80 ± 134.31 mm3
same,Tumor Weight,[1],0.85 ± 0.18 g
same,Body Weight (g)(d1),[2],20.92 ± 0.59 g
same,Body Weight (g)(d30),[2],18.82 ± 0.52 g
same,Inhibition Rate (%),[2],68.59%
same,Relative Tumor Proliferation Rate(T/C),[2],31.47%
same,Relative Tumor Volume (RTV),[2],6.13 ± 0.82
same,Tumor Volume (mm3) (d1),[2],115.38 ± 13.82 mm3
same,Tumor Volume (mm3) (d30),[2],707.28 ± 26.96 mm3
same,Tumor Weight,[2],0.56 ± 0.11 g
same,Body Weight (g)(d1),[3],21.57 ± 1.31 g
same,Body Weight (g)(d30),[3],20.39 ± 1.02 g
same,Inhibition Rate (%),[3],71.36%
same,Relative Tumor Proliferation Rate(T/C),[3],19.93%
same,Relative Tumor Volume (RTV),[3],3.34 ± 0.68
same,Tumor Volume (mm3) (d1),[3],181.48 ± 31.63 mm3
same,Tumor Volume (mm3) (d30),[3],606.14 ± 14.34 mm3
same,Tumor Weight,[3],0.62 ± 0.17 g
same,Relative Tumor Proliferation Rate(T/C),[4],52.01%
same,Relative Tumor Volume (RTV),[4],9.05 ± 2.58
same,Tumor Weight,[4],0.66 ± 0.28 g
same,Inhibition Rate (%),[4]; by tumor weight,72.12%
same,Body Weight (g)(d1),[4]; d1,22.78 ± 1.35 g
same,Tumor Volume (mm3) (d1),[4]; d1,92.02 ± 7.06 mm3
same,Body Weight (g)(d30),[4]; d30,21.32 ± 1.63 g
same,Tumor Volume (mm3) (d30),[4]; d30,830.30 ± 34.31 mm3
same,Body Weight (g)(d1),[5],20.32 ± 0.87 g
same,Body Weight (g)(d30),[5],19.25 ± 0.83 g
same,Inhibition Rate (%),[5],68.49%
same,Relative Tumor Proliferation Rate(T/C),[5],36.37%
same,Relative Tumor Volume (RTV),[5],7.66 ± 1.26
same,Tumor Volume (mm3) (d1),[5],130.82 ± 2.38 mm3
same,Tumor Volume (mm3) (d30),[5],1002.08 ± 48.82 mm3
same,Tumor Weight,[5],0.61 ± 0.13 g
same,Body Weight (g)(d1),[6],19.32 ± 0.25 g
same,Body Weight (g)(d30),[6],18.68 ± 1.21 g
same,Inhibition Rate (%),[6],70.06%
same,Relative Tumor Proliferation Rate(T/C),[6],23.29%
same,Relative Tumor Volume (RTV),[6],4.67 ± 0.82
same,Tumor Volume (mm3) (d1),[6],108.68 ± 13.62 mm3
same,Tumor Volume (mm3) (d30),[6],507.88 ± 87.93 mm3
same,Tumor Weight,[6],0.56 ± 0.4 g
same,Relative Tumor Proliferation Rate(T/C),[7]; 30 mg/kg,54.55%
same,Relative Tumor Volume (RTV),[7]; 30 mg/kg,5.54 ± 0.72
same,Tumor Volume (mm3) (d1),"[7]; 30 mg/kg, d1",93.73 ± 8.27 mm3
same,Tumor Volume (mm3) (d30),"[7]; 30 mg/kg, d30",515.49 ± 32.36 mm3
same,Body Weight (g)(d1),[7]; [8],21.89 ± 1.88 g
same,Body Weight (g)(d30),[7]; [8],19.92 ± 1.68 g
same,Inhibition Rate (%),[7]; [8],80.43%
same,Tumor Weight,[7]; [8],0.73 ± 0.09 g
